Source: PMC9538320 (Protein Science : A Publication of the Protein Society, 2022)

Target: SARS-CoV-2 protein 7a ectodomain (protein 7a ECD) (Severe acute respiratory syndrome coronavirus 2, UniProt P0DTC7)
Test: biochemical

SARS-CoV-2 protein 7a ectodomain (protein 7a ECD), sequence (P0DTC7 16-95): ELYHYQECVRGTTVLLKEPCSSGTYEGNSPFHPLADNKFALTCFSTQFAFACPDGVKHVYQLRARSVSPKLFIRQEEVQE

Compound: C=CC1=C(C)C2=Cc3c(C=C)c(C)c4[n]3[Fe]([Cl])[n]3c(c(C)c(CCC(=O)O)c3=CC3=NC(=C4)C(C)=C3CCC(=O)O)=CC1=N2 [heme]
- Kd: 469 ± 27 nM
